Laboratory results reported in patent EP4678638A1, “NEW E3 UBIQUITIN LIGASE LIGAND, PROTEIN DEGRADATION AGENT AND USE THEREOF” (priority 2023, dated 2024).
pIC50: −log10 of the molar value. Where two headings read alike, the source gives them in different places.

Columns and labels:
MV-4-11 = assay: CCK-8 proliferation, MV-4-11; assay type: cell-based, Human; conditions: CCK-8, 72 or 96 hours, read-out: Inhibitory activity (IC50) on tumor cell proliferation, MV-4-11
Summary of the method: (§1)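 Cells seeded, then after 24 h treated with 10 concentrations (top 10 µM, 5-fold serial dilution) for a line-specific time at 37°C, 5% CO2. Viability read by CCK-8; IC50 fitted from growth-inhibition curves.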

CCRF-CEM = assay: CCK-8 proliferation, CCRF-CEM; assay type: cell-based, Human; conditions: CCK-8, 96 hours, read-out: Inhibitory activity (IC50) on tumor cell proliferation, CCRF-CEM
Summary of the method: as §1

Kasumi-1 = assay: CCK-8 proliferation, Kasumi-1; assay type: cell-based, Human; conditions: read-out: Inhibitory activity (IC50) on tumor cell proliferation, Kasumi-1
Method: (§2) The tumor cells used herein were cultured in a cell culture medium listed in table A1 at 37°C in an incubator with 5% CO2. Prior to experimentation, all cell lines used were correctly identified by STR profiling, and tested negative for mycoplasma contamination using a mycoplasma detection kit through routine screenings. Table A1. Tumor cells and cell culture medium used in the present disclosure
(§3) IC50 values of the compounds of the present disclosure (including the compounds in Table 1, and compounds of examples) were measured using the Meilun Cell Counting Kit-8 kit from Dalian Meilun Biotech Co., Ltd. Assay details are as follows: tumor cells were seeded in a 96-well plate at a density listed in Table A2. After 24h, 100 µL of the inoculated cells were treated with 0.5µL of the compounds of the present disclosure (including the compounds in Tables 1 and 2, and compounds of examples) at 10 different successively decreasing concentrations (starting at the highest concentration of 10µM; 5-fold serial dilutions). After the cells were treated with the compounds of the present disclosure for a period of time, the cell viability detection reagent was added to the culture medium for cell viability assessment according to the instructions provided with the CCK-8 kit. […] The growth inhibition of the compounds of the present disclosure on cells was plotted by Prism Graphpad software, and the IC50 values of the compounds of the present disclosure were calculated therefrom. […] Seeding protocol and treatment time for tumor cells

PC-9 = assay: CCK-8 proliferation, PC-9; assay type: cell-based, Human; conditions: Homo sapiens, PC-9; CCK-8; 96 hours; read-out: Inhibitory activity (IC50) on tumor cell proliferation, PC-9
Method: as §2, §3

HCC827 = assay: CCK-8 proliferation, HCC827; assay type: cell-based, Human; conditions: Homo sapiens, HCC827; CCK-8; 96 hours; read-out: Inhibitory activity (IC50) on tumor cell proliferation, HCC827
Method: as §2, §3

H1975 = assay: CCK-8 proliferation, NCI-H1975 (H1975); assay type: cell-based, Human; conditions: Homo sapiens, NCI-H1975; CCK-8; 96 hours; read-out: Inhibitory activity (IC50) on tumor cell proliferation, H1975
Summary of the method: as §1

MCF7 = assay: CCK-8 proliferation, MCF7 (MCF-7); assay type: cell-based; conditions: Homo sapiens, MCF7, CCK-8
Summary of the method: as §1

CDK4 = target: T1, CDK4 (Homo sapiens, UniProt P11802); assay: Western blot degradation of CDK4 (MDA-MB-231 Cell); assay type: cell-based; conditions: Table D3
T1 construct: evaluate the effects of the compounds of the present disclosure on the expression of target proteins in cells; endogenous in cells; host or cells: MDA-MB-231
Summary of the method: (§4)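 Quantification by ImageJ densitometry of Western blot bands: DC50 is the fitted concentration halving band intensity relative to DMSO. Percent remaining uses internal-control normalization, and degradation rate is its complement.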

CDK6 = target: T2, CDK6 (Homo sapiens, UniProt Q00534); assay: Western blot degradation of CDK6 (MDA-MB-231 Cell); assay type: cell-based; conditions: Table D3
T2 construct: evaluate the effects of the compounds of the present disclosure on the expression of target proteins in cells; endogenous in cells; host or cells: MDA-MB-231
Summary of the method: as §4

IKZF1 = target: T3, IKZF1 (Homo sapiens, UniProt Q13422+Q96SW2); assay: Western blot degradation of IKZF1 (hPBMC); assay type: cell-based; conditions: Table D16
T3 construct: evaluate the effects of the compounds of the present disclosure on the expression of target proteins in cells; endogenous in cells; host or cells: hPBMC
Summary of the method: as §4

GSPT1 = target: T4, GSPT1 (Homo sapiens, UniProt P15170+Q96SW2); assay: Western blot degradation of GSPT1 (hPBMC); assay type: cell-based; conditions: Table D16
T4 construct: evaluate the effects of the compounds of the present disclosure on the expression of target proteins in cells; endogenous in cells; host or cells: hPBMC
Summary of the method: as §4

IKZF3 = target: T5, IKZF3 (Homo sapiens, UniProt Q96SW2+Q9UKT9); assay: Western blot degradation of IKZF3 (hPBMC); assay type: cell-based; conditions: Table D16
T5 construct: evaluate the effects of the compounds of the present disclosure on the expression of target proteins in cells; endogenous in cells; host or cells: hPBMC
Summary of the method: as §4

CK1a = target: T6, CK1a (Homo sapiens, UniProt P48729+Q96SW2); assay: Western blot degradation of CK1a (hPBMC); assay type: cell-based; conditions: Table D16
T6 construct: evaluate the effects of the compounds of the present disclosure on the expression of target proteins in cells; endogenous in cells; host or cells: hPBMC
Summary of the method: as §4

IKZF2 = target: T7, IKZF2 (Homo sapiens, UniProt Q96SW2+Q9UKS7); assay: Western blot degradation of IKZF2 (hPBMC); assay type: cell-based; conditions: Table D16
T7 construct: evaluate the effects of the compounds of the present disclosure on the expression of target proteins in cells; endogenous in cells; host or cells: hPBMC
Summary of the method: as §4

MDA-MB-231 = assay: CCK-8 proliferation, MDA-MB-231; assay type: cell-based; conditions: Homo sapiens, MDA-MB-231; CCK-8; 96 hours; read-out: Inhibitory activity (IC50) on tumor cell proliferation, MDA-MB-231
Summary of the method: as §1

WEE1 = target: T8, WEE1 (Homo sapiens, UniProt P30291+Q96SW2); assay: Western blot degradation of WEE1 (hPBMC); assay type: cell-based; conditions: Table D16
T8 construct: evaluate the effects of the compounds of the present disclosure on the expression of target proteins in cells; endogenous in cells; host or cells: hPBMC
Summary of the method: as §4

[1] = Homo sapiens, Kasumi 1, 72 hours

T8 sequence (P30291 whole entry): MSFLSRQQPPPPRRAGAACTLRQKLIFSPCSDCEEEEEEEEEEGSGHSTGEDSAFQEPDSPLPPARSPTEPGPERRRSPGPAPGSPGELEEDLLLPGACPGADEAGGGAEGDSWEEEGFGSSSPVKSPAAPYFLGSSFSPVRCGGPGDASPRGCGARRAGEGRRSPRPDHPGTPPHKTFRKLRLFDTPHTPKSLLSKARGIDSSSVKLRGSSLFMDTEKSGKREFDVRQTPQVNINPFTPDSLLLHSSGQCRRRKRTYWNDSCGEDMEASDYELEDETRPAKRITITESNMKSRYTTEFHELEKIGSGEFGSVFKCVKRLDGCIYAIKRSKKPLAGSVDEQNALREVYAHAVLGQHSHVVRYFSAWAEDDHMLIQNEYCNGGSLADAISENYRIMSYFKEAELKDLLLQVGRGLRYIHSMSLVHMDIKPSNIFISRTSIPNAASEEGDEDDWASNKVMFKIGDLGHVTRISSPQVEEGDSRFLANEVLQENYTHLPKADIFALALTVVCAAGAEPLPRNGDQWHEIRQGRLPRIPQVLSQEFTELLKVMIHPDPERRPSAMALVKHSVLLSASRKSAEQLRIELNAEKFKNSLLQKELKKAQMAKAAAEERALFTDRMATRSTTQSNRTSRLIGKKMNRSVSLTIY
T8 sequence (Q96SW2 whole entry): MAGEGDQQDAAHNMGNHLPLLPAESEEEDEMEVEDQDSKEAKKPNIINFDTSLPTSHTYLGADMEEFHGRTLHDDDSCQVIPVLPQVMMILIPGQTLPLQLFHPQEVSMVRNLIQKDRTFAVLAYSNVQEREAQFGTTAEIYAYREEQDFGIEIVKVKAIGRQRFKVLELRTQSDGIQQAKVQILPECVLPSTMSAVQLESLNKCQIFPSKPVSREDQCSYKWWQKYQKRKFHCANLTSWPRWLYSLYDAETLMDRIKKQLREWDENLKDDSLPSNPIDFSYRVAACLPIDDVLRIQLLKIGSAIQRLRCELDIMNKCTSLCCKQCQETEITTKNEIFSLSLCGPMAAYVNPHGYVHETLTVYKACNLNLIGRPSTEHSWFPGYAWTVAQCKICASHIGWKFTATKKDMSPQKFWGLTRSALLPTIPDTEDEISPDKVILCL
T8 sequence (Q16531 whole entry partner): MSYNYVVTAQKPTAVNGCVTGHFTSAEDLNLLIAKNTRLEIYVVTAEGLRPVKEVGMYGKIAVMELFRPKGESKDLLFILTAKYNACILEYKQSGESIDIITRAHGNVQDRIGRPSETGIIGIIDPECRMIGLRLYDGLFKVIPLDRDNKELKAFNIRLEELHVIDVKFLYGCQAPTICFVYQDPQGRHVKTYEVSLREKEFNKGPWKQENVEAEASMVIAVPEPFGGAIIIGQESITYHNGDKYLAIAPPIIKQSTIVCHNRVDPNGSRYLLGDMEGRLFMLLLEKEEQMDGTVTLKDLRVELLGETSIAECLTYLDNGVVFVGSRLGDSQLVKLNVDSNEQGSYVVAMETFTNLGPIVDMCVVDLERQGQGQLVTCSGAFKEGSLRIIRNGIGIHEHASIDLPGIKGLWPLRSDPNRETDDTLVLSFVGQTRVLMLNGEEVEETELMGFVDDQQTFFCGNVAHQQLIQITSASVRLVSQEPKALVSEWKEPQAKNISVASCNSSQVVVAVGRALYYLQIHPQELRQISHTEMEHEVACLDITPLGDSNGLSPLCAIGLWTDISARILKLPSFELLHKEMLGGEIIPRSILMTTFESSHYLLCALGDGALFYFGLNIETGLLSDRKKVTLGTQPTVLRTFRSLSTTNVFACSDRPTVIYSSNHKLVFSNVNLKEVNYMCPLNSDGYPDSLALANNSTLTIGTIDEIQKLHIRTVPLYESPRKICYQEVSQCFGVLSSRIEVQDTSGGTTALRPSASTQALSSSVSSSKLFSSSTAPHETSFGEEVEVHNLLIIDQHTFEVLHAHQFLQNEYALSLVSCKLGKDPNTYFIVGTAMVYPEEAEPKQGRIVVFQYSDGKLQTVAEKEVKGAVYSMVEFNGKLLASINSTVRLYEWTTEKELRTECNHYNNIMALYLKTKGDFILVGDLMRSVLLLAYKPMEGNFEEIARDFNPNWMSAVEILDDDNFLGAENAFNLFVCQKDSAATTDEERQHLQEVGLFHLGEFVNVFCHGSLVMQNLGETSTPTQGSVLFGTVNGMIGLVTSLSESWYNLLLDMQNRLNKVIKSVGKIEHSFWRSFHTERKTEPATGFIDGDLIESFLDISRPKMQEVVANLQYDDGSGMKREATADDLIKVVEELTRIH
T7 sequence (Q9UKS7 whole entry): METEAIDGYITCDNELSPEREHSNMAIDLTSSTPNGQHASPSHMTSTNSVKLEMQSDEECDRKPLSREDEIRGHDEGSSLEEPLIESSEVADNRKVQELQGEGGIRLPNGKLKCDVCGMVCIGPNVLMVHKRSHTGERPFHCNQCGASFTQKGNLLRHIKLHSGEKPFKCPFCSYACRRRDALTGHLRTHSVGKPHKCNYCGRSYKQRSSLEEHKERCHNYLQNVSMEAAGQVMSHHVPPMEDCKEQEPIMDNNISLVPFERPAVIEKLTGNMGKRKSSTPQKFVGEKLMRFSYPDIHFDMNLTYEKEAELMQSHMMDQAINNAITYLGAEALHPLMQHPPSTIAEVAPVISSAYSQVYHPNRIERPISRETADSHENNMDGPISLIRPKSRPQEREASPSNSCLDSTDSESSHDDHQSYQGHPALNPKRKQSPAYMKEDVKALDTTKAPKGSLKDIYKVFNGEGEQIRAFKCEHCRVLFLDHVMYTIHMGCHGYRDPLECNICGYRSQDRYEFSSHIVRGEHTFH
T7 sequence (Q96SW2 whole entry): as the sequence (Q96SW2 whole entry) above
T7 sequence (Q16531 whole entry partner): as the sequence (Q16531 whole entry partner) above
T4 sequence (P15170 whole entry): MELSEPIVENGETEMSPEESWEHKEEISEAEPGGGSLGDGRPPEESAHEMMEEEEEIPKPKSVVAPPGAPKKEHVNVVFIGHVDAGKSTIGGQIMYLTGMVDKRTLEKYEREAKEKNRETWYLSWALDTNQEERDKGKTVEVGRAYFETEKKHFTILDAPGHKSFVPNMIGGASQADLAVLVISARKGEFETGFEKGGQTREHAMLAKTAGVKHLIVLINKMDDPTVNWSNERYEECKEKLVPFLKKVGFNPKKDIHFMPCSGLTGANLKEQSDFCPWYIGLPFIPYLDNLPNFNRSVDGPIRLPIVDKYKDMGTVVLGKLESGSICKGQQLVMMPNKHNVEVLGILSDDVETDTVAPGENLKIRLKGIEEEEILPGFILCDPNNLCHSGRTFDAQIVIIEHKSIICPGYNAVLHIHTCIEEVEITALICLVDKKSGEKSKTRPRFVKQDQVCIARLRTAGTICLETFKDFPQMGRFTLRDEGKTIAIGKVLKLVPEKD
T4 sequence (Q96SW2 whole entry): as the sequence (Q96SW2 whole entry) above
T4 sequence (Q16531 whole entry partner): as the sequence (Q16531 whole entry partner) above
T5 sequence (Q9UKT9 whole entry): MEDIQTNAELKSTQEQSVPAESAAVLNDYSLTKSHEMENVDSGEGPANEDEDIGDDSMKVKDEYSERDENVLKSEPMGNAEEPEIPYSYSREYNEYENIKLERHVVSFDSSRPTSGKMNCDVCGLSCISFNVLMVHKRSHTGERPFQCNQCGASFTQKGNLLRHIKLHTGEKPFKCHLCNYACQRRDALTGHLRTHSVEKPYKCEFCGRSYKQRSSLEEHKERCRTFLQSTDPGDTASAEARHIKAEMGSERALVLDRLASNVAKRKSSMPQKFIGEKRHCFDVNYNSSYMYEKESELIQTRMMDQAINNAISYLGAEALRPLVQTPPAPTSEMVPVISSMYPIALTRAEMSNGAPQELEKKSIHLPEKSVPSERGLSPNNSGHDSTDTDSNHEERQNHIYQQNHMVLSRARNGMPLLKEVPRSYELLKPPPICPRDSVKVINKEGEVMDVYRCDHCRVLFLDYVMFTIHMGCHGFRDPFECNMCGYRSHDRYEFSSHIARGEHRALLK
T5 sequence (Q96SW2 whole entry): as the sequence (Q96SW2 whole entry) above
T5 sequence (Q16531 whole entry partner): as the sequence (Q16531 whole entry partner) above
T2 sequence (Q00534 whole entry): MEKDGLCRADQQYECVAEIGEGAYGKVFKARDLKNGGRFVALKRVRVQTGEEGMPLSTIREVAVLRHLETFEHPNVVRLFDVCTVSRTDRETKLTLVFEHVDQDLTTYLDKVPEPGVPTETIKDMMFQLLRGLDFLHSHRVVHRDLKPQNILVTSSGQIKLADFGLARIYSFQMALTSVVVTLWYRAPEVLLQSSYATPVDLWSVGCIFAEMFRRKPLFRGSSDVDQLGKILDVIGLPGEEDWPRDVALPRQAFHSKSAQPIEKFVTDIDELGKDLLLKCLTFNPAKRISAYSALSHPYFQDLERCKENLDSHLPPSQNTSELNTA
T3 sequence (Q13422 whole entry): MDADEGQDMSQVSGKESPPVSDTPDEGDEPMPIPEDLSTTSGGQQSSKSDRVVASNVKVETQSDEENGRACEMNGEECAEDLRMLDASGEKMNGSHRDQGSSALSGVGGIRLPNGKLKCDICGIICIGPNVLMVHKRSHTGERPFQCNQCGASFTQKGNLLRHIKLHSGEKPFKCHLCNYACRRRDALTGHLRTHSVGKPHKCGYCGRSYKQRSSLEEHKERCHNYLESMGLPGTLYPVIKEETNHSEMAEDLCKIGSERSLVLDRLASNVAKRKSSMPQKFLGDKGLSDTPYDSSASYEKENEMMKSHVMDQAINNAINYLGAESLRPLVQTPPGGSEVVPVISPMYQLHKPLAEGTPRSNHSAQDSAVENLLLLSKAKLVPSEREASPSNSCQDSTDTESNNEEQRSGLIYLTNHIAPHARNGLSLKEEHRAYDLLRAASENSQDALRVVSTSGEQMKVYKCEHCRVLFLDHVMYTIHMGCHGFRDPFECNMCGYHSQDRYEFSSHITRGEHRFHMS
T3 sequence (Q96SW2 whole entry): as the sequence (Q96SW2 whole entry) above
T3 sequence (Q16531 whole entry partner): as the sequence (Q16531 whole entry partner) above

CN1CCN(Cc2ccc(NC(=O)c3[nH]ncc3Nc3ncnc4[nH]ccc34)cc2)CC1 [FN-1501, reference compound]
pIC50 (MV-4-11): 8.00 to 9.00 | pIC50 (CCRF-CEM): 6.30 to 7.00 | pIC50 (Kasumi-1; 72 hours): 6.30 to 7.00

O=C1CCC(c2ccc(CN3CCN(c4ccc(Nc5ncc6nc(Nc7ccccc7)n(C7CCCC7)c6n5)cc4)CC3)cc2F)C(=O)N1 (stereo not drawn) [GT-03741, 3-(4-((4-(4-((9-cyclopentyl-8-(phenylamino)-9H-purin-2-yl)amino)phenyl)piperazin-1-yl)methyl)-2-fluorophenyl)piperidine-2,6-dione]
pIC50 (PC-9): 7.30 to 8.00 | pIC50 (HCC827): 7.30 to 8.00

O=C1CCN(c2ccc(CN3CCN(c4ccc(Nc5ncc6nc(Nc7ccccc7)n(C7CCCC7)c6n5)cc4)CC3)cc2)C(=O)N1 [GT-05837, 1-(4-((4-(4-((9-cyclopentyl-8-(phenylamino)-9H-purin-2-yl)amino)phenyl)piperazin-1-yl)methyl)phenyl)dihydropyrimidine-2,4(1H,3H)-dione]
pIC50 (PC-9): 8.00 to 9.00 | pIC50 (H1975): 6.30 to 7.00 | pIC50 (HCC827): 8.00 to 9.00

CN(Cc1ccc(N2CCC(=O)NC2=O)nc1)C1CCN(c2ccc(Nc3ncc4nc(Nc5ccccc5)n(C5CCCC5)c4n3)cc2)CC1 [GT-05871, 1-(5-(((1-(4-((9-cyclopentyl-8-(phenylamino)-9H-purin-2-yl)amino)phenyl)piperidin-4-yl)(methyl)amino)methyl)pyridin-2-yl)dihydropyrimidine-2,4(1H,3H)-dione]
pIC50 (PC-9): 8.00 to 9.00 | pIC50 (H1975): 6.30 to 7.00 | pIC50 (HCC827): 7.30 to 8.00

Cc1nc2c(F)cc(-c3nc(Nc4ccc(CN5CCN(Cc6ccc(N7CCC(=O)NC7=O)nc6)CC5)cn4)ncc3F)cc2n1C(C)C [GT-06668, 1-(5-((4-((6-((5-fluoro-4-(4-fluoro-1-isopropyl-2-methyl-1H-benzo[d]imidazol-6-yl)pyrimidin-2-yl)amino)pyridin-3-yl)methyl)piperazin-1-yl)methyl)pyridin-2-yl)dihydropyrimidine-2,4(1H,3H)-dione]
pIC50 (MV-4-11; Homo sapiens, MV4-11): 7.00 to 7.30 | pIC50 (Kasumi-1; [1]): 6.30 to 7.00 | pIC50 (MCF7; read-out: Inhibitory activity (IC50) on tumor cell proliferation, MCF7): 7.00 to 7.30 | Degradation of substrate protein CDK4 (substrate protein remaining %) (CDK4): A (A is defined as 0% ≤ substrate protein remaining % ≤ 80%) | Degradation of substrate protein CDK6 (substrate protein remaining %) (CDK6): A (A is defined as 0% ≤ substrate protein remaining % ≤ 80%)

Cc1cc(S(=O)(=O)N2CCN(Cc3ccc(N4CCC(=O)NC4=O)cc3)CC2)ccc1Nc1ncc(Br)c(Nc2cccc(F)c2C(N)=O)n1 [GT-06831, 2-((5-bromo-2-((4-((4-(4-(2,4-dioxotetrahydropyrimidin-1(2H)-yl)benzyl)piperazin-1-yl)sulfonyl)-2-methylphenyl)amino)pyrimidin-4-yl)amino)-6-fluorobenzamide]
pIC50 (MV-4-11; Homo sapiens, MV4-11): 6.30 to 7.00 | pIC50 (Kasumi-1; [1]): 6.00 to 6.30

Cc1cc(S(=O)(=O)N2CCN(Cc3cccc(N4CCC(=O)NC4=O)c3)CC2)ccc1Nc1ncc(Br)c(Nc2cccc(F)c2C(N)=O)n1 [GT-06832, 2-((5-bromo-2-((4-((4-(3-(2,4-dioxotetrahydropyrimidin-1(2H)-yl)benzyl)piperazin-1-yl)sulfonyl)-2-methylphenyl)amino)pyrimidin-4-yl)amino)-6-fluorobenzamide]
pIC50 (MV-4-11; Homo sapiens, MV4-11): 6.30 to 7.00 | pIC50 (Kasumi-1; [1]): 6.00 to 6.30

Cc1cc(S(=O)(=O)N2CCN(Cc3ccc(N4CCC(=O)NC4=O)nc3)CC2)ccc1Nc1ncc(Br)c(Nc2cccc(F)c2C(N)=O)n1 [GT-06834, 2-((5-bromo-2-((4-((4-((6-(2,4-dioxotetrahydropyrimidin-1(2H)-yl)pyridin-3-yl)methyl)piperazin-1-yl)sulfonyl)-2-methylphenyl)amino)pyrimidin-4-yl)amino)-6-fluorobenzamide]
pIC50 (MV-4-11; Homo sapiens, MV4-11): 6.30 to 7.00 | pIC50 (CCRF-CEM; Homo sapiens, CCRF-CEM): 6.00 to 6.30 | pIC50 (Kasumi-1; [1]): 6.00 to 6.30

Cc1ccsc1C(=O)n1nc(Nc2ccc(S(=O)(=O)N3CCN(Cc4ccc(N5CCC(=O)NC5=O)cc4)CC3)cc2)nc1N [GT-06856, 1-(4-((4-((4-((5-amino-1-(3-methylthiophene-2-carbonyl)-1H-1,2,4-triazol-3-yl)amino)phenyl)sulfonyl)piperazin-1-yl)methyl)phenyl)dihydropyrimidine-2,4(1H,3H)-dione]
pIC50 (MV-4-11; Homo sapiens, MV4-11): 6.30 to 7.00 | pIC50 (CCRF-CEM; Homo sapiens, CCRF-CEM): 6.00 to 6.30 | pIC50 (Kasumi-1; [1]): 6.00 to 6.30

Cc1ccsc1C(=O)n1nc(Nc2ccc(S(=O)(=O)N3CCN(Cc4ccc(N5CCC(=O)NC5=O)nc4)CC3)cc2)nc1N [GT-06861, 1-(5-((4-((4-((5-amino-1-(3-methylthiophene-2-carbonyl)-1H-1,2,4-triazol-3-yl)amino)phenyl)sulfonyl)piperazin-1-yl)methyl)pyridin-2-yl)dihydropyrimidine-2,4(1H,3H)-dione]
pIC50 (MV-4-11; Homo sapiens, MV4-11): 6.30 to 7.00 | pIC50 (CCRF-CEM; Homo sapiens, CCRF-CEM): 6.00 to 6.30 | pIC50 (Kasumi-1; [1]): 6.00 to 6.30

Cc1ccsc1C(=O)n1nc(Nc2ccc(S(=O)(=O)N3CCN(Cc4cccc(NC5CCC(=O)NC5=O)c4)CC3)cc2)nc1N (stereo not drawn) [GT-06862, 3-((3-((4-((4-((5-amino-1-(3-methylthiophene-2-carbonyl)-1H-1,2,4-triazol-3-yl)amino)phenyl)sulfonyl)piperazin-1-yl)methyl)phenyl)amino)piperidine-2,6-dione]
pIC50 (MV-4-11; Homo sapiens, MV4-11): 6.30 to 7.00 | pIC50 (Kasumi-1; [1]): 6.30 to 7.00

O=C1CCN(c2cnc(F)c(CCl)c2)C(=O)N1 [GT-07633, 1-(5-(Chloromethyl)-6-fluoropyridin-3-yl)dihydropyrimidine-2,4(1H,3H)-dione]
Degradation of substrate protein IKZF1 (substrate protein remaining %) (IKZF1): B (B is defined as substrate protein remaining % > 80%) | pIC50 (MCF7; read-out: Inhibitory activity (IC50) on tumor cell proliferation, MCF-7): 5.30 to 6.00 | Degradation of substrate protein GSPT1 (substrate protein remaining %) (GSPT1): B (B is defined as substrate protein remaining % > 80%) | Degradation of substrate protein IKZF3 (substrate protein remaining %) (IKZF3): B (B is defined as substrate protein remaining % > 80%) | Degradation of substrate protein CKla (substrate protein remaining %) (CK1a): A (A is defined as 0% ≤ substrate protein remaining % ≤ 80%) | Degradation of substrate protein IKZF2 (substrate protein remaining %) (IKZF2): A (A is defined as 0% ≤ substrate protein remaining % ≤ 80%) | pIC50 (MDA-MB-231): 5.30 to 6.00 | Degradation of substrate protein WEE1 (substrate protein remaining %) (WEE1): A (A is defined as 0% ≤ substrate protein remaining % ≤ 80%)
